Columns and labels:
[1] = system: Morganella morganii; test: Antibacterial activity against beta-lactamase producing Morganella morganii ATCC 25830 after 18 hrs by agar dilution method; type: functional; conditions: ATCC 25830, 18 h
[2] = system: Acinetobacter calcoaceticus; test: Antibacterial activity against beta-lactamase producing Acinetobacter calcoaceticus ATCC 19606 after 18 hrs by agar dilution method; type: functional; conditions: ATCC 19606, 18 h
[3] = system: Staphylococcus aureus; test: Antibacterial activity against methicillin-resistant Staphylococcus aureus ATCC 33591 after 18 hrs by agar dilution method; type: functional; conditions: ATCC 33591, 18 h
[4] = system: Enterococcus faecalis; test: Antibacterial activity against vancomycin-resistant Enterococcus faecalis ATCC 51299 after 18 hrs by agar dilution method; type: functional; conditions: ATCC 51299, 18 h
[5] = system: Escherichia coli; test: Antibacterial activity against beta-lactamase producing Escherichia coli ATCC 25922 after 18 hrs by agar dilution method; type: functional; conditions: ATCC 25922, 18 h
[6] = system: Enterococcus faecium; test: Antibacterial activity against vancomycin-resistant Enterococcus faecium ATCC 700221 after 18 hrs by agar dilution method; type: functional; conditions: ATCC 700221, 18 h
[7] = system: Enterococcus faecium; test: Antibacterial activity against vancomycin-resistant Enterococcus faecium 12-3 after 18 hrs by agar dilution method; type: functional; conditions: 12-3, 18 h
[8] = system: Staphylococcus epidermidis; test: Antibacterial activity against methicillin-resistant Staphylococcus epidermidis 12-8 after 18 hrs by agar dilution method; type: functional; conditions: 12-8, 18 h
[9] = system: Staphylococcus epidermidis; test: Antibacterial activity against methicillin-resistant Staphylococcus epidermidis 12-6 after 18 hrs by agar dilution method; type: functional; conditions: 12-6, 18 h
[10] = system: Enterococcus faecalis; test: Antibacterial activity against vancomycin-resistant Enterococcus faecalis 09-9 after 18 hrs by agar dilution method; type: functional; conditions: 09-9, 18 h
[11] = system: Pseudomonas aeruginosa; test: Antibacterial activity against beta-lactamase producing Pseudomonas aeruginosa ATCC 27853 after 18 hrs by agar dilution method; type: functional; conditions: ATCC 27853, 18 h
[12] = system: Staphylococcus aureus; test: Antibacterial activity against methicillin-resistant Staphylococcus aureus 12-28 after 18 hrs by agar dilution method; type: functional; conditions: 12-28, 18 h
[13] = system: Staphylococcus aureus; test: Antibacterial activity against methicillin-susceptible Staphylococcus aureus 15 after 18 hrs by agar dilution method; type: functional; conditions: Staphylococcus aureus, 15, 18 h
[14] = system: Staphylococcus aureus; test: Antibacterial activity against methicillin-resistant Staphylococcus aureus 12-33 after 18 hrs by agar dilution method; type: functional; conditions: 12-33, 18 h
[15] = system: Staphylococcus epidermidis; test: Antibacterial activity against methicillin-susceptible Staphylococcus epidermidis ATCC 12228 after 18 hrs by agar dilution method; type: functional; conditions: ATCC 12228, 18 h
[16] = system: Enterococcus faecium; test: Antibacterial activity against vancomycin-resistant Enterococcus faecium 12-1 after 18 hrs by agar dilution method; type: functional; conditions: 12-1, 18 h
[17] = system: Proteus vulgaris; test: Antibacterial activity against beta-lactamase producing Proteus vulgaris ATCC 29905 after 18 hrs by agar dilution method; type: functional; conditions: ATCC 29905, 18 h
[18] = system: Enterococcus faecalis; test: Antibacterial activity against vancomycin-resistant Enterococcus faecalis 12-5 after 18 hrs by agar dilution method; type: functional; conditions: 12-5, 18 h
[19] = system: Staphylococcus aureus; test: Antibacterial activity against methicillin-susceptible Staphylococcus aureus ATCC 29213 after 18 hrs by agar dilution method; type: functional; conditions: ATCC 29213, 18 h
[20] = system: Klebsiella pneumoniae; test: Antibacterial activity against NDM-1 producing Klebsiella pneumoniae ATCC BAA-2146 after 18 hrs by agar dilution method; type: functional; conditions: ATCC BAA-2146, 18 h
[21] = system: Enterococcus faecalis; test: Antibacterial activity against vancomycin-susceptible Enterococcus faecalis ATCC 29212 after 18 hrs by agar dilution method; type: functional; conditions: ATCC 29212, 18 h
[22] = system: MCF7; test: Cytotoxicity against human MCF7 cells assessed as growth inhibition after 48 hrs by sulforhodamine B assay; type: functional, cell-based; conditions: MCF7, 48 h
[23] = system: K562; test: Cytotoxicity against human K562 cells assessed as growth inhibition after 48 hrs by sulforhodamine B assay; type: functional, cell-based; conditions: K562, 48 h
[24] = system: HepG2; test: Cytotoxicity against human HepG2 cells assessed as growth inhibition after 48 hrs by sulforhodamine B assay; type: functional, cell-based; conditions: HepG2, 48 h
[25] = system: Klebsiella pneumoniae; test: Antibacterial activity against extended spectrum beta-lactamase producing Klebsiella pneumoniae ATCC 700603 after 18 hrs by agar dilution method; type: functional; conditions: ATCC 700603, 18 h

Compound | MIC [1] [µg/mL] | MIC [2] [µg/mL] | MIC [3] [µg/mL] | MIC [4] [µg/mL] | MIC [5] [µg/mL] | MIC [6] [µg/mL] | MIC [7] [µg/mL] | MIC [8] [µg/mL] | MIC [9] [µg/mL] | MIC [10] [µg/mL] | MIC [11] [µg/mL] | MIC [12] [µg/mL] | MIC [13] [µg/mL] | MIC [14] [µg/mL] | MIC [15] [µg/mL] | MIC [16] [µg/mL] | MIC [17] [µg/mL] | MIC [18] [µg/mL] | IC50 [23] [µM] | IC50 [24] [µM] | also measured
C[C@H]1COc2c(N3CCN(C)CC3)c(F)cc3c(=O)c(C(=O)O)cn1c23.C[C@H]1COc2c(N3CCN(C)CC3)c(F)cc3c(=O)c(C(=O)O)cn1c23.O [LEVOFLOXACIN] | 0.06 | 0.5 | 0.25 | 0.5 | ≤ 0.03 | 128 | 64 | 8 | 0.5 | > 128 | 0.5 | 0.25 | 0.25 | 128 | 0.25 | 32 | ≤ 0.03 | 0.5 |  |  | MIC [19]: 0.25 µg/mL; MIC [20]: > 128 µg/mL; MIC [21]: 0.5 µg/mL
COC(=O)c1c(OC)cc2cc3c(c(O)c2c1C)C(=O)[C@@]1(O)C(OC)=CC(=O)[C@H](OC)[C@@]1(O)C3=O | > 64 | > 64 | > 64 | > 64 | > 64 | > 64 | > 64 | > 64 | > 64 | > 64 | > 64 | > 64 | > 64 | > 64 | > 64 | > 64 | > 64 | > 64 | 20.8 | 7.5 | IC50 [22]: 16.2 µM; MIC [25]: > 64 µg/mL; MIC [19]: > 64 µg/mL; MIC [20]: > 64 µg/mL; MIC [21]: > 64 µg/mL
COC(=O)c1c(OC)cc2cc3c(c(O)c2c1C)C(=O)[C@]1(OC)C(=O)C=C(OC)[C@@H](O)[C@]1(O)C3=O |  |  |  |  |  |  |  |  |  |  |  |  |  |  |  |  |  |  | 5.2 | 1.6 | IC50 [22]: 1.5 µM
COC(=O)c1c(OC)cc2cc3c(c(O)c2c1C)C(=O)O[C@@H]3[C@@]1(O)[C@H](O)C(OC)=CC(=O)[C@@H]1OC | > 64 | > 64 | > 64 | > 64 | > 64 | > 64 | > 64 | > 64 | > 64 | > 64 | > 64 | > 64 | > 64 | > 64 | > 64 | > 64 | > 64 | > 64 | > 100 | > 100 | IC50 [22]: > 100 µM; MIC [25]: > 64 µg/mL; MIC [19]: > 64 µg/mL; MIC [20]: > 64 µg/mL; MIC [21]: > 64 µg/mL
COc1cccc2c1C(=O)c1c(O)c3c(c(O)c1C2=O)C[C@@](O)(C(=O)CO)C[C@@H]3O[C@H]1C[C@H](N)[C@H](O)[C@H](C)O1 [DOXORUBICIN] |  |  |  |  |  |  |  |  |  |  |  |  |  |  |  |  |  |  | 10.9 | 5.4 | 
COC(=O)c1c(OC)cc2cc3c(c(O)c2c1C)C(=O)O[C@H]3[C@@]1(O)[C@H](O)C(OC)=CC(=O)[C@H]1OC | > 64 | > 64 | > 64 | > 64 | > 64 | > 64 | > 64 | > 64 | > 64 | > 64 | > 64 | > 64 | > 64 | > 64 | > 64 | > 64 | > 64 | > 64 | > 100 | > 100 | IC50 [22]: > 100 µM; MIC [25]: > 64 µg/mL; MIC [19]: > 64 µg/mL; MIC [20]: > 64 µg/mL; MIC [21]: > 64 µg/mL
COC(=O)c1c(OC)cc2cc3c(c(O)c2c1C)C(=O)O[C@@H]3[C@@]1(O)[C@H](O)C(OC)=CC(=O)[C@@H]1O | > 64 | > 64 | > 64 | > 64 | > 64 | > 64 | > 64 | > 64 | > 64 | > 64 | > 64 | > 64 | > 64 | > 64 | > 64 | > 64 | > 64 | > 64 | > 100 | > 100 | IC50 [22]: > 100 µM; MIC [25]: > 64 µg/mL; MIC [19]: > 64 µg/mL; MIC [20]: > 64 µg/mL; MIC [21]: > 64 µg/mL
